According to the SangsterLogP compilation:

Assay: method code SF-AS, from DOI: 10.1002/1520-6017(200012)89:12<1525::aid-jps3>3.0.co;2-t
Conditions: not given

First: CCCCC(=O)NCCCCCN(O)C(=O)CCC(=O)NCCCCCN(O)C(=O)CCC(=O)NCCCCCN(O)C(C)=O
Second: CCCC(=O)NCCCCCN(O)C(=O)CCC(=O)NCCCCCN(O)C(=O)CCC(=O)NCCCCCN(O)C(C)=O
The logP of the first is higher: 0.88 for the first, 0.42 for the second.

First: CC(=O)N(O)CCCCCNC(=O)CCC(=O)N(O)CCCCCNC(=O)CCC(=O)N(O)CCCCCNC=O
Second: CC(=O)NCCCCCN(O)C(=O)CCC(=O)NCCCCCN(O)C(=O)CCC(=O)NCCCCCN(O)C(C)=O
The logP of the first is lower: -0.1 for the first, 0.1 for the second.

First: CC(=O)N(O)CCCCCNC(=O)CCC(=O)N(O)CCCCCNC(=O)CCC(=O)N(O)CCCCCNC(=O)CCC(=O)O
Second: CCC(=O)NCCCCCN(O)C(=O)CCC(=O)NCCCCCN(O)C(=O)CCC(=O)NCCCCCN(O)C(C)=O
The logP of the first is lower: -0.5 for the first, 0.26 for the second.

`CC(=O)N(O)CCCCCNC(=O)CCC(=O)N(O)CCCCCNC(=O)CCC(=O)N(O)CCCCCNC(=O)c1ccccc1` and `CC(=O)N(O)CCCCCNC(=O)CCC(=O)N(O)CCCCCNC(=O)CCC(=O)N(O)CCCCCNC(=O)Cc1ccccc1` are within 0.2 log units of each other in logP: 0.86 for the first, 0.9 for the second.

Same assay, conditions: pH 7.4

`CCCCCCCC(=O)NCCCCCN(O)C(=O)CCC(=O)NCCCCCN(O)C(=O)CCC(=O)NCCCCCN(O)C(C)=O` and `CCCCCC(=O)NCCCCCN(O)C(=O)CCC(=O)NCCCCCN(O)C(=O)CCC(=O)NCCCCCN(O)C(C)=O` are within 0.2 log units of each other in logD: 1.09 for the first, 1.1 for the second.
